Experimental data published in ChEMBL document CHEMBL2046438, “Indole alkaloids from Geissospermum reticulatum” (J Nat Prod, 2012).
≈ marks a conversion by molar mass, not a printed value. Calls of active or inactive are those of the source. No cut-off for these calls is given here.

Experiments:
Leishmania infantum = test: Leishmanicidal activity against promastigote form of Leishmania infantum PB75 after 48 hrs by modified colorimetric method; format: functional; details: PB75, 48 h
Trypanosoma cruzi [1] = test: Antitrypanosomal activity against epimastigote form of Trypanosoma cruzi Y after 72 hrs by modified MTT colorimetric assay; format: functional
[2] = Cytotoxicity against CHO cells assessed as cell viability after 48 hrs by MTT colorimetric assay; format: cell-based, Cricetulus griseus; details: chinese hamster
CHO = test: Cytotoxicity against CHO cells assessed as cell viability at 1 to 100 ug/ml after 48 hrs by MTT colorimetric assay; format: cell-based, Cricetulus griseus; details: chinese hamster
Trypanosoma cruzi [3] = test: Antitrypanosomal activity against epimastigote form of Trypanosoma cruzi Y at 1 to 100 ug/ml after 72 hrs by modified MTT colorimetric assay; format: functional, organism-based

Structure (SMILES)	GI50 (Leishmania infantum) [µg/mL]	GI50 at 48 h [2] [µg/mL]	other results
CC[C@@]12CCCN3CC[C@]4(c5cccc(O)c5N(C(C)=O)[C@@H]4CC1)[C@H]32	7.7 (≈ 22.6 µM)	16.7 (≈ 49.1 µM)	GI50 (Trypanosoma cruzi [1]): 41.7 µg/mL (≈ 122 µM)
COc1ccc2c(c1O)N(C(C)=O)[C@H]1C[C@@H]3CCN(C)CC[C@@]21C(=O)[C@]31O[C@H]1C	> 100	–	–
C/C=C1\C(=O)[C@@]23CCN(C)CC[C@H]1C[C@@H]2N(C(C)=O)c1c3ccc(OC)c1O	> 100	–	–
CCc1ccc2c3[nH]c4ccccc4c3cc[n+]2c1.[Cl-] [FLAVOPEREIRINE]	–	–	Activity (CHO): Toxic; Activity (Trypanosoma cruzi [3]): Active
C/C=C1/C(=O)[C@@]23CCN(C)CC[C@H]1C[C@@H]2N(C(C)=O)c1c3ccc(OC)c1O	> 100	–	–
COc1cc(O)c2c(c1)[C@]13CCN4CC[C@H](C[C@@H]1N2C(C)=O)C1=CCO[C@]143	> 100	–	–
CC1CS(=O)(=O)CCN1/N=C/c1ccc([N+](=O)[O-])o1 (stereo not drawn) [NIFURTIMOX]	–	13.9 (≈ 48.4 µM)	–
CCCC(=O)N1c2c(O)cccc2[C@]23CCN4CC[C@H](C[C@H]12)C1=CCO[C@]143	52.2 (≈ 142 µM)	–	–
CC(=O)N1c2c(O)cccc2[C@]23CCN4CC[C@H](C[C@H]12)C1=CCO[C@]143 [GEISSOSPERMIDINE]	> 100	–	–
C[C@@H]1[C@H](O)[C@@H](C)/C=C/C=C/C=C/C=C/C=C/C=C/C=C/[C@H](O[C@@H]2O[C@H](C)[C@@H](O)[C@H](N)[C@@H]2O)C[C@@H]2O[C@](O)(C[C@@H](O)C[C@@H](O)[C@H](O)CC[C@@H](O)C[C@@H](O)CC(=O)O[C@H]1C)C[C@H](O)[C@H]2C(=O)O [AMPHOTERICIN B]	–	10.3 (≈ 11.1 µM)	–
